The results in this text go back to PubChem BioAssay (NCI).

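96-well plates; 48 h exposure; 5 concentrations. Endpoints by linear interpolation between flanking doses. Not reached: highest tested concentration assigned. GI50 is the concentration that inhibits growth by half. TGI marks complete inhibition of growth.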

Some test systems named below: HOP-62 NSCLC; HCT-15 colon; MCF7 breast; SF-295 CNS; NCI/ADR-RES ovarian; NCI-H226 lung; TK-10 renal; MOLT-4 leukemia; HCC-2998 colon; SF-268 CNS.
What all share (assay): growth of human tumour cells (NCI), 48 h

Consider `Cc1nc2c(cc1C(=O)NN)c(=O)n(C)c(=O)n2C`, for which the TGI in the test on HOP-62 NSCLC, in the test on HCT-15 colon, in the test on MCF7 breast, with SF-295 CNS, in the test on NCI/ADR-RES ovarian and with NCI-H226 lung was greater than 100 µM in each case. Further, the TGI in the test on TK-10 renal, in the test with MOLT-4 leukemia and in the test with HCC-2998 colon was greater than 100 µM each time.

For the compound `COc1c(-c2cc(C)c(Cl)c(=O)[nH]2)c(O)c(OC)c2occc12`, the TGI in the test on HOP-62 NSCLC, in the test with HCT-15 colon, with MCF7 breast, in the test on SF-295 CNS, with NCI/ADR-RES ovarian and in the test with NCI-H226 lung was greater than 100 µM each time. Also, the TGI with TK-10 renal, in the test on SF-268 CNS, in the test with MOLT-4 leukemia and with HCC-2998 colon was greater than 100 µM throughout.

Regarding `Cn1ccnc1CCc1ccc(F)cc1F`, the TGI in the test on HOP-62 NSCLC, in the test on HCT-15 colon, with MCF7 breast, with SF-295 CNS, in the test with NCI/ADR-RES ovarian and with NCI-H226 lung was greater than 100 µM throughout. Moreover, the TGI in the test with TK-10 renal, with SF-268 CNS, in the test with MOLT-4 leukemia and in the test with HCC-2998 colon was greater than 100 µM each time.

As for `O=C1COC(c2ccccc2O)=NN1CCCN1CCCC1`, the TGI in the test on HOP-62 NSCLC, with HCT-15 colon, in the test on MCF7 breast, with SF-295 CNS, in the test with NCI/ADR-RES ovarian and with NCI-H226 lung was greater than 100 µM throughout. Also, the TGI with TK-10 renal, with SF-268 CNS and with MOLT-4 leukemia was greater than 100 µM throughout.

For the compound `COc1ccc(/C=N\N2CC(=O)N3C4C=CC(CC4)N3C2=O)cc1` (stereo unspecified), the TGI in the test with HOP-62 NSCLC, in the test on HCT-15 colon, in the test on MCF7 breast, with SF-295 CNS, in the test with NCI/ADR-RES ovarian and in the test on NCI-H226 lung was greater than 100 µM throughout. For the same compound, the TGI in the test on TK-10 renal, in the test on SF-268 CNS and in the test with MOLT-4 leukemia was greater than 100 µM throughout.

With `Cc1c(-c2ccccc2)c(C#N)c2nnn(-c3ccccc3)c(=O)n12`, the TGI in the test on HOP-62 NSCLC, with HCT-15 colon, with MCF7 breast, with SF-295 CNS, in the test with NCI/ADR-RES ovarian and with NCI-H226 lung was greater than 100 µM in each case. The TGI with TK-10 renal, in the test on SF-268 CNS and in the test with HCC-2998 colon was greater than 100 µM throughout.

With `COC12C=C/C(=C(/C(=O)OCc3ccncn3)C(=O)CCCCCCCCC3(OC)C=C/C(=C(/C(=O)OCc4ccncn4)C(=O)CCCCCCCC1)O3)O2`, the GI50 is 0.225 µM in the test with HOP-62 NSCLC; 0.278 µM in the test with HCT-15 colon; 0.314 µM with MCF7 breast; 0.221 µM in the test on SF-295 CNS; 0.417 µM in the test with NCI/ADR-RES ovarian; 0.395 µM in the test on TK-10 renal. For the same compound, the figures for the GI50 with SF-268 CNS and in the test with HCC-2998 colon were 0.314 µM and 0.225 µM, respectively. Moreover, the TGI in the test with HOP-62 NSCLC is 0.6 µM; in the test on HCT-15 colon, 1.12 µM; with MCF7 breast, 11 µM; in the test with SF-295 CNS, 0.703 µM; in the test with NCI/ADR-RES ovarian, 12.6 µM; with TK-10 renal, 2.4 µM. Moreover, the TGI in the test on SF-268 CNS amounted to 1.92 µM; with HCC-2998 colon, 0.45 µM.

In the case of `Oc1nc(N/N=C/c2c[nH]c3ccccc23)[nH]c1/C=C1\C=Nc2ccccc21`, the TGI with HOP-62 NSCLC turned out to be 80.9 µM; in the test on HCT-15 colon it was 61 µM; with MCF7 breast it was 29.5 µM; with SF-295 CNS it was 40.9 µM; in the test with NCI/ADR-RES ovarian, 84.5 µM; with NCI-H226 lung it was 34.4 µM. The results for the TGI in the test on TK-10 renal, in the test with SF-268 CNS and in the test with MOLT-4 leukemia were greater than 100 µM, 43.1 µM and 22.3 µM, respectively.

Take `CN(C(=O)C12C3C4(C(=O)O)C1(C(=O)N(C)C(C)(C)C)C1C2(C(=O)O)C3(C(=O)N(C)C(C)(C)C)C14C(=O)N(C)C(C)(C)C)C(C)(C)C` (stereo unspecified): the TGI in the test with HOP-62 NSCLC, in the test with HCT-15 colon, in the test with MCF7 breast, in the test with SF-295 CNS, in the test with NCI/ADR-RES ovarian and in the test with TK-10 renal was greater than 100 µM throughout. Further, the TGI with SF-268 CNS, in the test with MOLT-4 leukemia and in the test with HCC-2998 colon was greater than 100 µM in each case.

Consider `CN(C)CCCn1c(Cc2ccccc2)nc2cc(C(F)(F)F)ccc21`, for which the TGI in the test on HOP-62 NSCLC is greater than 100 µM; in the test with HCT-15 colon it was 69.6 µM; in the test with MCF7 breast it was 39.3 µM; in the test with SF-295 CNS, 33.5 µM; in the test on NCI/ADR-RES ovarian, greater than 100 µM; in the test on NCI-H226 lung, greater than 100 µM. Moreover, the results for the TGI in the test on TK-10 renal, in the test with SF-268 CNS and in the test with MOLT-4 leukemia were 98.4 µM, greater than 100 µM and 48.3 µM, respectively.

In the case of `C[C@]12CC[C@H]3[C@@H](CCC4=CC(=O)C=C[C@@]43O)[C@@H]1CCC2=O`, the TGI in the test with HOP-62 NSCLC, with HCT-15 colon, in the test with MCF7 breast, in the test on SF-295 CNS, with NCI/ADR-RES ovarian and in the test on NCI-H226 lung was greater than 100 µM each time. The TGI with MOLT-4 leukemia and in the test on HCC-2998 colon was greater than 100 µM in each case.

Consider `Cc1ccccc1N=C(N)NC#N`, for which the TGI in the test with HOP-62 NSCLC, in the test with HCT-15 colon, in the test with MCF7 breast, with NCI/ADR-RES ovarian, in the test with TK-10 renal and in the test on SF-268 CNS was greater than 100 µM in each case. The TGI in the test with MOLT-4 leukemia and in the test on HCC-2998 colon was greater than 100 µM each time.

`O=S(=O)(c1ccccc1)n1c(C(O)c2ccncc2)cc2ccccc21` (stereo unspecified): the TGI in the test on HOP-62 NSCLC was greater than 100 µM; with HCT-15 colon, greater than 100 µM; with MCF7 breast, 40.5 µM; in the test with SF-295 CNS it was greater than 100 µM; in the test with NCI/ADR-RES ovarian it was greater than 100 µM; with NCI-H226 lung, greater than 100 µM. Also, the TGI is 79.7 µM with TK-10 renal and greater than 100 µM in the test with MOLT-4 leukemia.

Take `CC1CN=C(Nc2cccc(C(F)(F)F)c2)S1` (stereo unspecified): the TGI in the test with HOP-62 NSCLC, in the test on HCT-15 colon, with MCF7 breast, in the test on NCI-H226 lung, with TK-10 renal and with SF-268 CNS was greater than 100 µM in each case. In addition, the TGI in the test with MOLT-4 leukemia and with HCC-2998 colon was greater than 100 µM each time.
